ChEMBL document CHEMBL1144428 (J Med Chem, 2005)

Each compound was assayed against T1, Prostaglandin G/H synthase 1 (Mus musculus, UniProt P22437).
T1 sequence (P22437 whole entry): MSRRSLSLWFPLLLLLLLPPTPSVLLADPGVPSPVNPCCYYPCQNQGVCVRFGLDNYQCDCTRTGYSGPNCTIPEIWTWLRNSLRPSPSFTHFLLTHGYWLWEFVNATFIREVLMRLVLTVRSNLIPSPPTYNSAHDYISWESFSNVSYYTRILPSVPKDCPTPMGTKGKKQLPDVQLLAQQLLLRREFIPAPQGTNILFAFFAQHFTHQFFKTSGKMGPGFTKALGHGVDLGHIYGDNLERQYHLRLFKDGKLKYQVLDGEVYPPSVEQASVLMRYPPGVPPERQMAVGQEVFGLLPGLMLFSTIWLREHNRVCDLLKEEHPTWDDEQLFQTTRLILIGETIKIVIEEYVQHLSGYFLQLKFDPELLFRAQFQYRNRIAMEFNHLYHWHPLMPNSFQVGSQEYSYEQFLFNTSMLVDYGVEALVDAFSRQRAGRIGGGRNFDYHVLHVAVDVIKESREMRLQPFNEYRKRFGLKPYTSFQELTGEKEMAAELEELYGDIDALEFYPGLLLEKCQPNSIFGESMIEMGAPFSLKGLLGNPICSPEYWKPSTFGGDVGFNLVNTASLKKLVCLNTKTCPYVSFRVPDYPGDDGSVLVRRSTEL
Description: In vitro inhibitory activity against Prostaglandin G/H synthase 1 in murine J774 cells

| IC50 [µM] | Compound |
| --- | --- |
| > 100 | CCOC(=O)C(=O)c1cc(-c2ccc(S(C)(=O)=O)cc2)n(-c2ccc(C)cc2)c1C |
| > 100 | CCOC(=O)Cc1cc(-c2ccc(S(C)(=O)=O)cc2)n(-c2ccccc2)c1C |
| > 100 | Cc1c(CC(=O)O)cc(-c2ccc(S(C)(=O)=O)cc2)n1-c1ccccc1 |
| > 100 | CCOC(=O)Cc1cc(-c2ccc(S(C)(=O)=O)cc2)n(-c2ccc(C(F)(F)F)cc2)c1C |
| > 100 | Cc1c(CC(=O)O)cc(-c2ccc(S(C)(=O)=O)cc2)n1-c1ccc(C(F)(F)F)cc1 |
| > 100 | CCOC(=O)C(=O)c1cc(-c2ccc(S(C)(=O)=O)cc2)n(-c2ccccc2)c1C |
| > 100 | CCOC(=O)Cc1cc(-c2ccc(S(C)(=O)=O)cc2)n(-c2ccc(C)cc2)c1C |
| > 100 | CCOC(=O)C(=O)c1cc(-c2ccc(S(C)(=O)=O)cc2)n(-c2ccc(C(F)(F)F)cc2)c1C |
| > 100 | Cc1ccc(-n2c(-c3ccc(S(C)(=O)=O)cc3)cc(CC(=O)O)c2C)cc1 |
